# Laboratory results taken from ChEMBL document CHEMBL5321210, “N-adamantyl-anthranil amide derivatives: New selective ligands for the cannabinoid receptor subtype 2 (CB2R)” (Eur J Med Chem, 2023).
# Calls of active or inactive are those of the source. No cut-off for these calls is given here.
# Legend:
# THP-1 [1] = assay: Antiinflammatory activity in PMA-differentiated human THP-1 macrophages assessed as decrease in IFN-gamma production at 10 uM incubated for 24 hrs in the presence of JTE907 by ELISA coupled qRT-PCR analysis; type: functional, cell-based
# THP-1 [2] = assay: Antiinflammatory activity in human THP-1 monocytes assessed as decrease in TNF-alpha production at 10 uM incubated for 24 hrs in the presence of JTE907 by ELISA coupled qRT-PCR analysis; type: functional, cell-based
# THP-1 [3] = assay: Antiinflammatory activity in human THP-1 monocytes assessed as decrease in IL-1beta production at 10 uM incubated for 24 hrs in the presence of N-(adamantan-1-yl)-4-(pentylamino)-[1,1'-biphenyl]-3-carboxamide by ELISA coupled qRT-PCR analysis; type: functional, cell-based
# THP-1 [4] = assay: Antiinflammatory activity in human THP-1 monocytes assessed as decrease in IFN-gamma production at 10 uM incubated for 24 hrs in the presence of JTE907 by ELISA coupled qRT-PCR analysis; type: functional, cell-based
# THP-1 [5] = assay: Antiinflammatory activity in human THP-1 monocytes assessed as increase in IL-4 production at 10 uM incubated for 24 hrs by ELISA coupled qRT-PCR analysis; type: functional, cell-based
# THP-1 [6] = assay: Antiinflammatory activity in LPS-activated PMA-differentiated human THP-1 macrophages assessed as decrease in TNF-alpha production at 10 uM incubated for 24 hrs in the presence of JTE907 by ELISA coupled qRT-PCR analysis; type: functional, cell-based
# THP-1 [7] = assay: Antiinflammatory activity in human THP-1 monocytes assessed as increase in IL-4 production at 10 uM incubated for 24 hrs in the presence of JTE907 by ELISA coupled qRT-PCR analysis; type: functional, cell-based
# THP-1 [8] = assay: Antiinflammatory activity against LPS-activated PMA-differentiated human THP-1 macrophages assessed as decrease in IL-6 production at 10 uM incubated for 24 hrs by ELISA coupled qRT-PCR analysis relative to control; type: functional; design: scale not given: the % may be the effect or the level left
# THP-1 [9] = assay: Antiinflammatory activity in PMA-differentiated human THP-1 macrophages assessed as reduction in IL-1beta production at 10 uM incubated for 24 hrs by ELISA coupled qRT-PCR analysis relative to control; type: functional; design: scale not given: the % may be the effect or the level left
# THP-1 [10] = assay: Antiinflammatory activity in PMA-differentiated human THP-1 macrophages assessed as reduction in TNF-alpha production at 10 uM incubated for 24 hrs by ELISA coupled qRT-PCR analysis relative to control; type: functional; design: scale not given: the % may be the effect or the level left
# THP-1 [11] = assay: Antiinflammatory activity against LPS-activated PMA-differentiated human THP-1 monocytes assessed as decrease in IL-1beta production at 10 uM incubated for 24 hrs in the presence of N-(adamantan-1-yl)-4-(pentylamino)-[1,1'-biphenyl]-3-carboxamide by ELISA coupled qRT-PCR analysis; type: functional, cell-based
# THP-1 [12] = assay: Antiinflammatory activity in PMA-differentiated human THP-1 macrophages assessed as increase in IL-10 production at 10 uM incubated for 24 hrs by ELISA coupled qRT-PCR analysis; type: functional, cell-based
# THP-1 [13] = assay: Antiinflammatory activity in PMA-differentiated human THP-1 macrophages assessed as decrease in IL-1beta production at 10 uM incubated for 24 hrs in the presence of JTE907 by ELISA coupled qRT-PCR analysis; type: functional, cell-based
# THP-1 [14] = assay: Antiinflammatory activity against LPS-activated PMA-differentiated human THP-1 macrophages assessed as decrease in IFN-gamma production at 10 uM incubated for 24 hrs by ELISA coupled qRT-PCR analysis relative to control; type: functional; design: scale not given: the % may be the effect or the level left
# THP-1 [15] = assay: Antiinflammatory activity against LPS-activated PMA-differentiated human THP-1 macrophages assessed as decrease in IL-6 production at 1 to 10 uM incubated for 24 hrs by ELISA coupled qRT-PCR analysis relative to control; type: functional; design: scale not given: the % may be the effect or the level left; conditions: dose 1-10 µM
# THP-1 [16] = assay: Antiinflammatory activity in human THP-1 monocytes assessed as decrease in TNF-alpha production at 1 to 10 uM incubated for 24 hrs in the presence of JTE907 by ELISA coupled qRT-PCR analysis; type: functional, cell-based; conditions: dose 1-10 µM
# THP-1 [17] = assay: Antiinflammatory activity in human THP-1 monocytes assessed as increase in IL-4 production incubated for 24 hrs by ELISA coupled qRT-PCR analysis; type: functional, cell-based; conditions: dose 1-10 µM
# THP-1 [18] = assay: Antiinflammatory activity in PMA-differentiated human THP-1 macrophages assessed as reduction in IFN-gamma production at 1 to 10 uM incubated for 24 hrs by ELISA coupled qRT-PCR analysis relative to control; type: functional; design: scale not given: the % may be the effect or the level left; conditions: dose 1-10 µM
# THP-1 [19] = assay: Antiinflammatory activity against LPS-activated PMA-differentiated human THP-1 macrophages assessed as decrease in IL-1beta production at 1 to 10 uM incubated for 24 hrs by ELISA coupled qRT-PCR analysis relative to control; type: functional; design: scale not given: the % may be the effect or the level left; conditions: dose 1-10 µM
# Cannabinoid receptor 2 = Cannabinoid receptor 2 (Homo sapiens, UniProt P34972); assay: Agonist activity at human CB2 receptor expressed in CHO-K1 cells assessed as inhibition of NKH-477 induced cAMP production by measuring maximal efficacy incubated for 30 mins by luminescence based analysis relative to control; type: functional, cell-based; conditions: filed as agonist
# Cannabinoid receptor 2, sequence (P34972 whole entry): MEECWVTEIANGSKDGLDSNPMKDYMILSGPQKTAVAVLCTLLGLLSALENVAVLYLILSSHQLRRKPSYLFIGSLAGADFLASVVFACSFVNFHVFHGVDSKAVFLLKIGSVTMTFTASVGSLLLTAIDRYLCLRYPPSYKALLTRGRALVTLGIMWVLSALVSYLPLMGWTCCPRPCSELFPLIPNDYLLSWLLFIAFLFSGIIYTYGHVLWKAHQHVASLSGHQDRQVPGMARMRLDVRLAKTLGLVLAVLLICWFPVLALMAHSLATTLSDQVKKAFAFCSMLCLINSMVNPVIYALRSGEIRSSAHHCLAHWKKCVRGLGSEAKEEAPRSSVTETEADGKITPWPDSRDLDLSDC
# THP-1 [20] = assay: Antiinflammatory activity in LPS-activated PMA-differentiated human THP-1 macrophages assessed as increase in IL-4 production at 1 to 10 uM incubated for 24 hrs in the presence of JTE907 by ELISA coupled qRT-PCR analysis; type: functional, cell-based; conditions: dose 1-10 µM
# THP-1 [21] = assay: Antiinflammatory activity in human THP-1 monocytes assessed as decrease in IL-6 production incubated for 24 hrs by ELISA coupled qRT-PCR analysis; type: functional, cell-based; conditions: dose 1-10 µM
# THP-1 [22] = assay: Antiinflammatory activity in human THP-1 monocytes assessed as decrease in IL-1beta production at 1 to 10 uM incubated for 24 hrs in the presence of JTE907 by ELISA coupled qRT-PCR analysis; type: functional, cell-based; conditions: dose 1-10 µM
# THP-1 [23] = assay: Antiinflammatory activity against LPS-activated PMA-differentiated human THP-1 macrophages assessed as increase in IL-10 production at 1 to 10 uM incubated for 24 hrs by ELISA coupled qRT-PCR analysis; type: functional, cell-based; conditions: dose 1-10 µM
# THP-1 [24] = assay: Antiinflammatory activity in human THP-1 monocytes assessed as increase in IL-10 production incubated for 24 hrs by ELISA coupled qRT-PCR analysis; type: functional, cell-based; conditions: dose 1-10 µM
# THP-1 [25] = assay: Antiinflammatory activity in human THP-1 monocytes assessed as decrease in IFN-gamma production at 1 to 10 uM incubated for 24 hrs in the presence of JTE907 by ELISA coupled qRT-PCR analysis; type: functional, cell-based; conditions: dose 1-10 µM
# THP-1 [26] = assay: Antiinflammatory activity in human THP-1 monocytes assessed as decrease in IL-1beta production incubated for 24 hrs by ELISA coupled qRT-PCR analysis; type: functional, cell-based; conditions: dose 1-10 µM
# THP-1 [27] = assay: Antiinflammatory activity against LPS-activated PMA-differentiated human THP-1 macrophages assessed as decrease in TNF-alpha production at 1 to 10 uM incubated for 24 hrs by ELISA coupled qRT-PCR analysis relative to control; type: functional; design: scale not given: the % may be the effect or the level left; conditions: dose 1-10 µM
# THP-1 [28] = assay: Antiinflammatory against LPS-activated human THP-1 monocytes assessed as decrease in IFN-gamma production at 1 to 10 uM incubated for 24 hrs in the presence of JTE907 by ELISA coupled qRT-PCR analysis; type: functional, cell-based; conditions: dose 1-10 µM
# THP-1 [29] = assay: Antiinflammatory against LPS-activated human THP-1 monocytes assessed as decrease in IL-1beta production at 1 to 10 uM incubated for 24 hrs in the presence of JTE907 by ELISA coupled qRT-PCR analysis; type: functional, cell-based; conditions: dose 1-10 µM
compound,measurement,setting,value
O=C(NC1CCCCC1)c1cn(CCN2CCOCC2)c2cc(Cl)ccc2c1=O,Activity,THP-1 [1],inactive
same,Activity,THP-1 [2],inactive
same,Activity,THP-1 [3],inactive
same,Activity,THP-1 [4],inactive
same,Activity,THP-1 [5],Active
same,Activity,THP-1 [6],inactive
same,Activity,THP-1 [7],inactive
same,Activity,THP-1 [8],70%
same,Activity,THP-1 [9],50%
same,Activity,THP-1 [10],50%
same,Activity,THP-1 [11],inactive
same,Activity,THP-1 [12],Active
same,Activity,THP-1 [13],inactive
same,Activity,THP-1 [14],70%
CCCCCNc1ccccc1C(=O)NC12CC3CC(CC(C3)C1)C2,Activity,THP-1 [15],70%
same,Activity,THP-1 [16],inactive
same,Activity,THP-1 [17],Dose-Dependent Effect
same,Activity,THP-1 [18],50%
same,Activity,THP-1 [19],70%
same,Emax,Cannabinoid receptor 2,77.2%
same,Activity,THP-1 [20],inactive
same,Activity,THP-1 [21],Dose-Dependent Effect
same,Activity,THP-1 [22],inactive
same,Activity,THP-1 [23],Active
same,Activity,THP-1 [24],Dose-Dependent Effect
same,Activity,THP-1 [25],inactive
same,Activity,THP-1 [26],Dose-Dependent Effect
same,Activity,THP-1 [27],70%
same,Activity,THP-1 [28],inactive
same,Activity,THP-1 [29],inactive
